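1) Cells in 96-well plates. 2) Compound, 48 h, 5 concentrations. 3) Linear interpolation between surrounding doses. 4) Unreached endpoint = highest concentration. GI50 marks 50% less growth. TGI marks complete inhibition of growth.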 Where only a bound is given, the exact number is not on record here.

The values that follow come from PubChem BioAssay (NCI).

Test in all cases: DTP human tumour cell line panel, 48 h
The test system of assay [1] is NCI/ADR-RES ovarian.
The test system of assay [2] is SNB-19 CNS.
Assay [3] relates to NCI-H226 lung.
For assay [4], the system named is UO-31 renal.
For assay [5], the system named is SF-268 CNS.
Assay [6] concerns ACHN renal.
For assay [7], the system named is OVCAR-3 ovarian.
For assay [8], the system named is MCF7 breast.

Usually GI50 stands for the concentration at which growth is held to half of that of the control. Usually TGI stands for the concentration giving total growth inhibition. Read a high TGI as less potent growth arrest. Take `Cc1[nH]nc(C(=O)n2nc(N)c3ccccc32)c1[N+](=O)[O-]`: the GI50 was > 100 µM in assay [1]; > 100 µM in assay [2]; > 100 µM in assay [3]; > 78.6 µM in assay [4]; > 100 µM in assay [5]; > 100 µM in assay [6]. In addition, the GI50 in assay [7] and in assay [8] was > 100 µM each time. Also, the total growth inhibition concentration (TGI) in assay [1], in assay [2], in assay [3], in assay [4], in assay [5] and in assay [6] was > 100 µM in each case. The TGI in assay [7] and in assay [8] was > 100 µM each time.

For the compound `COc1ccc2cc(-c3c(-c4ccncc4)nc(-c4ccc(S(C)(=O)=O)cc4C)n3C)ccc2c1`, the GI50 in assay [1] was 8.67 µM; in assay [2], 9.04 µM; in assay [3], 4.17 µM; in assay [4], 4.4 µM; in assay [5] it was 11.1 µM; in assay [6], 8.36 µM. In addition, the GI50 in assay [7] was 6.97 µM; in assay [8], 7.09 µM. Besides, the concentration for total growth inhibition (TGI) in assay [1] is > 25 µM; in assay [2], > 25 µM; in assay [3] it was > 20.4 µM; in assay [4], 20.2 µM; in assay [5], > 25 µM; in assay [6] it was > 25 µM. In addition, the TGI in assay [7] was > 23.5 µM; in assay [8], > 18.4 µM.

As for `Cc1cc2c(cc1Cl)SC1=NN(C)C(N(C)C)N1S2(=O)=O` (stereo unspecified), the GI50 in assay [1] was > 100 µM; in assay [2] it was > 100 µM; in assay [3], > 100 µM; in assay [4] it was 98.1 µM; in assay [5] it was > 100 µM; in assay [6], > 100 µM. Further, the GI50 in assay [7] and in assay [8] was > 100 µM throughout. Also, the TGI in assay [1], in assay [2], in assay [3], in assay [4], in assay [5] and in assay [6] was > 100 µM each time. In addition, the TGI in assay [7] and in assay [8] was > 100 µM throughout.

As for `CCOc1cccc(/C=N/NC(=O)C(=O)Nc2cccc(C(F)(F)F)c2)c1O`, the GI50 in assay [1] was 2.02 µM; in assay [2], 2.48 µM; in assay [3] it was 3.96 µM; in assay [4], 0.63 µM; in assay [5], 1.24 µM; in assay [6] it was 1.03 µM. Also, the concentration for 50% growth inhibition (GI50) in assay [7] is 0.407 µM; in assay [8], 2.14 µM. Also, the TGI was 37.1 µM in assay [1]; > 100 µM in assay [2]; 50.1 µM in assay [3]; 18.5 µM in assay [4]; 97 µM in assay [5]; 25.3 µM in assay [6]. The TGI in assay [7] and in assay [8] was > 100 µM throughout.

As to `Fc1cc2[nH]ncc2c2c3c(c(-c4cn[nH]c4C(F)(F)F)nc12)C1CCC3C1` (stereo unspecified), the GI50 in assay [1] was 2.4 µM; in assay [2], 1.59 µM; in assay [3], 0.926 µM; in assay [4], 0.767 µM; in assay [5], 1.16 µM; in assay [6], 0.532 µM. Besides, the GI50 was 1.39 µM in assay [7] and 0.815 µM in assay [8]. Besides, the TGI in assay [1] is 16.1 µM; in assay [2] it was 6.57 µM; in assay [3], 4.72 µM; in assay [4], 1.97 µM; in assay [5], 4.64 µM; in assay [6] it was 3.2 µM. Besides, the TGI in assay [7] is 4.87 µM; in assay [8] it was 5.57 µM.

Turning to `COc1cc(C(=O)Nc2cc3c(cc2Oc2cc(C)cc(C)c2)C(=O)N(C)[C@@H](CC(=O)N(C)O)C(=O)N3)c(Br)c(OC)c1OC`, the GI50 in assay [1] is 0.777 µM; in assay [2], < 0.00333 µM; in assay [3] it was < 0.00333 µM; in assay [4], 0.0255 µM; in assay [5], < 0.00333 µM; in assay [6], 0.0111 µM. For the same compound, the concentration for 50% growth inhibition (GI50) in assay [7] and in assay [8] was < 0.00333 µM throughout. The TGI in assay [1] stood at 7.34 µM; in assay [2], 0.00576 µM; in assay [3], 0.0128 µM; in assay [4] it was 0.413 µM; in assay [5] it was 0.0067 µM; in assay [6], 0.374 µM. Moreover, the concentration for total growth inhibition (TGI) was < 0.00333 µM in assay [7] and 0.00821 µM in assay [8].

For `O=C(O)C1CCCCC1C(=O)O.[NH-]C1CCC1.[NH2-].[Pt+2]` (stereo unspecified), the GI50 in assay [1] was 33.8 µM; in assay [2], > 100 µM; in assay [3], 18.9 µM; in assay [4], 19.4 µM; in assay [5], > 100 µM; in assay [6], 16.4 µM. Further, the GI50 in assay [7] is 15.8 µM; in assay [8], 22.7 µM. Further, the total growth inhibition concentration (TGI) in assay [1] is > 100 µM; in assay [2], > 100 µM; in assay [3], 42.8 µM; in assay [4] it was 50.3 µM; in assay [5], > 100 µM; in assay [6], 31.3 µM. Further, the total growth inhibition concentration (TGI) in assay [7] was 30.4 µM; in assay [8], > 100 µM.

As to `Nc1ccc(C(=O)CC(N)C(=O)O)cc1O` (stereo unspecified), the TGI in assay [1], in assay [2], in assay [3], in assay [4], in assay [5] and in assay [6] was > 100 µM in each case. Further, the total growth inhibition concentration (TGI) in assay [7] and in assay [8] was > 100 µM each time.

On to `COc1ccc(-c2ccc(-c3ccc(C(=N)N)cn3)o2)cc1`, for which the GI50 is 14.1 µM in assay [1]; 11.7 µM in assay [2]; 12.8 µM in assay [3]; 2.68 µM in assay [4]; 11.2 µM in assay [5]; 6.56 µM in assay [6]. Moreover, the GI50 was 8.9 µM in assay [7] and 3.17 µM in assay [8]. The TGI in assay [1] was 30.7 µM; in assay [2], 24.6 µM; in assay [3], 29.5 µM; in assay [4] it was 17.3 µM; in assay [5], 25.3 µM; in assay [6] it was 19.6 µM. Further, the total growth inhibition concentration (TGI) in assay [7] is 21.6 µM; in assay [8], 13.4 µM.
